The values that follow come from paper PMC5971061, “Differential Effects of Linkers on the Activity of Amphiphilic Tobramycin Antifungals” (Molecules : A Journal of Synthetic Chemistry and Natural …, 2018).

In experiment [1] the test system is Aspergillus terreus ATCC MYA-3633 (strain M). The experiment can be described thus: MIC, filamentous fungi (CLSI M38-A2), strain M. The class given is cell-based. The following applies: MIC-0, strain M, 35 °C 72 h. Here is the method:
(§1) The spores were harvested from sporulating cultures growing on potato dextrose agar (PDA) by filtration through sterile glass wool and enumerated by using a hemocytometer (Hausser Scientific, Horsham, PA, USA) to obtain the desired inoculum size. Two-fold serial dilutions of compounds 3, 4, 7a, 7b, 9, and 16, as well as CAS and TOB were made in sterile 96-well microtiter plates to obtain the final concentration range of 0.24–62.5 μg/mL for TOB and TOB derivatives as well as 0.03–31.3 μg/mL for CAS in the RPMI 1640 medium. The spore suspensions were added to the wells to afford a final concentration of 5 × 10^5 spores/mL. The plates were incubated at 35 °C for 72 h. […] Each test was performed in triplicate.

The subject of experiment [2] is Candida krusei ATCC 6258 (strain I). The experiment can be described thus: MIC, broth microdilution (CLSI M27-A3), yeast strain I. It is filed as cell-based. As to conditions: Pichia kudriavzevii, ATCC6258; MIC-0, strain I, 35 °C 48 h. As for the experimental part:
(§2) The final concentrations of compounds 3, 4, 7a, 7b, 9, and 16, as well as that of TOB tested in this study ranged from 0.24–62.5 μg/mL. CAS was used as a positive control and the final concentrations tested for CAS ranged from 0.03–31.3 μg/mL. Briefly, overnight yeast cultures were grown in yeast peptone dextrose (YPD) broth and the cell density was adjusted to an OD600 of 0.12 (~1 × 10^6 CFU/mL) by using a spectrophotometer. Yeast cell suspensions were further diluted to achieve 1–5 × 10^3 CFU/mL in RPMI 1640 medium, and 100 μL of these yeast cells was added to 96-well microtiter plates containing RPMI 1640 medium and titrated compounds. Each test was performed in triplicate. The plates were incubated at 35 °C for 48 h.

Experiment [3] deals with C. albicans ATCC 64124 (strain B). The experiment can be described thus: MIC, broth microdilution (CLSI M27-A3), yeast strain B. As to conditions: Candida albicans, ATCC64124; MIC-0, strain B, 35 °C 48 h. The class given is cell-based. As for the experimental part:
as §2

The test system of experiment [4] is nine non-albicans Candida strains (H-J, CG1-3, CP1-3). Nature of the experiment: MIC across the panel of nine non-albicans Candida strains. It is filed as cell-based, Candida glabrata, Candida krusei, Candida parapsilosis. Here is the method:
as §2

The subject of experiment [5] is Candida parapsilosis clinical isolate CP2. Nature of the experiment: MIC, broth microdilution (CLSI M27-A3), CP2. It is filed as cell-based. As to conditions: Lodderomyces parapsilosis; MIC-0, CP2, 35 °C 48 h. As for the experimental part: as §2
Experiment [6] has as its system Candida parapsilosis ATCC 22019 (strain J). Nature of the experiment: MIC, broth microdilution (CLSI M27-A3), yeast strain J. The class given is cell-based. As to conditions: Lodderomyces parapsilosis, ATCC22019; MIC-0, strain J, 35 °C 48 h. As for the experimental part: as §2
Experiment [7] has as its system Candida glabrata clinical isolate CG3. Nature of the experiment: MIC, broth microdilution (CLSI M27-A3), CG3. It is filed as cell-based. The following applies: Nakaseomyces glabratus; MIC-0, CG3, 35 °C 48 h. Here is the method: as §2
Experiment [8] deals with Cryptococcus neoformans clinical isolate CN2. The experiment can be described thus: MIC, broth microdilution (CLSI M27-A3), CN2. As to conditions: MIC-0, CN2, 35 °C 48 h. The class given is cell-based. As for the experimental part:
as §2

In experiment [9] the test system is Cryptococcus neoformans clinical isolate CN1. The experiment can be described thus: MIC, broth microdilution (CLSI M27-A3), CN1. The class given is cell-based. The following applies: MIC-0, CN1, 35 °C 48 h. Here is the method: as §2
Experiment [10] concerns C. albicans ATCC MYA-2876(S) (strain C). Nature of the experiment: MIC, broth microdilution (CLSI M27-A3), yeast strain C. The class given is cell-based. As to conditions: Candida albicans; MIC-0, strain C, 35 °C 48 h. Here is the method: as §2
For experiment [11], the system named is C. albicans ATCC 90819(R) (strain D). The experiment can be described thus: MIC, broth microdilution (CLSI M27-A3), yeast strain D. It is filed as cell-based. As to conditions: Candida albicans, ATCC90819; MIC-0, strain D, 35 °C 48 h. As for the experimental part: as §2
Experiment [12] concerns Candida glabrata clinical isolate CG2. The experiment can be described thus: MIC, broth microdilution (CLSI M27-A3), CG2. The class given is cell-based. As to conditions: Nakaseomyces glabratus; MIC-0, CG2, 35 °C 48 h. Here is the method:
as §2

Experiment [13] has as its system Cryptococcus neoformans clinical isolate CN3. The experiment can be described thus: MIC, broth microdilution (CLSI M27-A3), CN3. It is filed as cell-based. The following applies: MIC-0, CN3, 35 °C 48 h. As for the experimental part: as §2
Experiment [14] has as its system Candida glabrata clinical isolate CG1. Nature of the experiment: MIC, broth microdilution (CLSI M27-A3), CG1. It is filed as cell-based. As to conditions: Nakaseomyces glabratus; MIC-0, CG1, 35 °C 48 h. Here is the method:
as §2

Experiment [15] relates to Aspergillus nidulans ATCC 38163 (strain L). Nature of the experiment: MIC, filamentous fungi (CLSI M38-A2), strain L. It is filed as cell-based. The following applies: MIC-0, strain L, 35 °C 72 h. As for the experimental part: as §1
In another experiment the test system is BEAS-2B cell line. The experiment can be described thus: In vitro cytotoxicity assay (resazurin), BEAS-2B. It is filed as cell-based, human. As to conditions: Homo sapiens, 24 h, resazurin. Here is the method:
Mammalian cytotoxicity assays were performed as previously described with minor modifications. The normal human bronchial epithelial cells BEAS-2B and the human lung carcinoma epithelial cells A549 were grown in DMEM containing 10% fetal bovine serum (FBS) and 1% antibiotics. The confluent cells were then trypsinized with 0.05% trypsin and 0.53 mM EDTA, and resuspended in fresh DMEM medium. The cells were transferred into 96-well microtiter plates at a density of 3000 cells/well and were grown for 24 h. The following day, the medium was replaced by a fresh culture medium containing serially diluted compounds 3, 4, 7a, 7b, and 9, as well as the parent drug TOB at final concentrations of 0.48–62.5 μg/mL or sterile ddH2O (negative control). The cells were incubated for an additional 24 h at 37 °C with 5% CO2 in a humidified incubator. To evaluate cell survival, each well was treated with 10 μL (25 μg/mL) of resazurin sodium salt (Sigma-Aldrich) for 4–6 h. Metabolically active cells can convert resazurin (blue) to the highly fluorescent dye resorufin (pink), which was detected at λ560 excitation and λ590 emission wavelengths by using a SpectraMax M5 plate reader. Triton X-100® (1% v/v) gave the complete loss of cell viability and was used as the positive control. The percentage survival rates were calculated by using the following formula: % cell survival = [(fluorescence of sample) − (fluorescence of blank)] × 100/[(fluorescence of negative control) − (fluorescence of blank)].

Experiment [16] deals with seven C. albicans strains (A-G). Nature of the experiment: MIC across the panel of seven C. albicans strains. It is filed as cell-based. The following applies: Candida albicans; across all seven C. albicans strains tested. Here is the method: as §2
[17] abbreviates: Aspergillus nidulans, ATCC38163, 72 h, read-out: MIC.

In brackets after ≈: the same amount, converted by molar mass. Where two headings read alike, the source gives them in different places. A value given as a limit tells only on which side of the number the result lay.

`CCCCCCCCCCc1cn(C[C@H]2O[C@H](O[C@@H]3[C@@H](O)[C@H](O[C@H]4O[C@H](CN)[C@@H](O)C[C@H]4N)[C@@H](N)C[C@H]3N)[C@H](O)[C@@H](N)[C@@H]2O)nn1` [Compound 7a, O-3-Amino-3,6-dideoxy-6-(4-decyl-1H-1,2,3-triazol-1-yl)-α-D-glucopyranosyl-(1→6)-O-[2,6-diamino-2,3,6-trideoxy-α-D-ribo-hexopyranosyl-(1→4)]-2-deoxy-D-streptamine]: the MIC in [1] was over 62.5 µg/mL; in experiment [2] it was 15.6 µg/mL (≈ 23.7 µM); in experiment [3] it was 31.3 µg/mL (≈ 47.5 µM); in experiment [4], 15.6 to 62.5 µg/mL (≈ 23.7 to 94.9 µM); in experiment [5], 15.6 µg/mL (≈ 23.7 µM); in experiment [6], 15.6 µg/mL (≈ 23.7 µM). In addition, the minimal inhibitory concentration (MIC) in experiment [7] amounted to 15.6 µg/mL (≈ 23.7 µM); in [8], 0.975 µg/mL (≈ 1.48 µM); in experiment [9], 0.975 µg/mL (≈ 1.48 µM); in experiment [10] it was 62.5 µg/mL (≈ 94.9 µM); in experiment [11], 62.6 µg/mL (≈ 95 µM); in [12], 15.6 µg/mL (≈ 23.7 µM). In addition, the minimal inhibitory concentration (MIC) was 0.48 µg/mL (≈ 0.729 µM) in experiment [13]; 31.3 µg/mL (≈ 47.5 µM) in experiment [14]; 1.95 to 3.9 µg/mL (≈ 2.96 to 5.92 µM) in experiment [15] (setting [17]); 3.9 µg/mL (≈ 5.92 µM) in [15]; 31.3 to 62.5 µg/mL (≈ 47.5 to 94.9 µM) in [16]. Further, in the experiment on BEAS-2B cell line, the IC50 was over 62.5 µg/mL.
As to `CCCCCCCCCCCCc1cn(C[C@H]2O[C@H](O[C@@H]3[C@@H](O)[C@H](O[C@H]4O[C@H](CN)[C@@H](O)C[C@H]4N)[C@@H](N)C[C@H]3N)[C@H](O)[C@@H](N)[C@@H]2O)nn1` [Compound 7b, O-3-Amino-3,6-dideoxy-6-(4-dodecyl-1H-1,2,3-triazol-1-yl)-α-D-glucopyranosyl-(1→6)-O-[2,6-diamino-2,3,6-trideoxy-α-D-ribo-hexopyranosyl-(1→4)]-2-deoxy-D-streptamine], the MIC in experiment [1] was 62.5 µg/mL (≈ 91 µM); in experiment [2] it was 3.9 µg/mL (≈ 5.68 µM); in experiment [3] it was 3.9 µg/mL (≈ 5.68 µM); in experiment [4] it was 1.95 to 7.8 µg/mL (≈ 2.84 to 11.4 µM); in experiment [5], 1.95 µg/mL (≈ 2.84 µM); in experiment [6] it was 1.95 µg/mL (≈ 2.84 µM). The MIC in experiment [7] came to 3.9 µg/mL (≈ 5.68 µM); in experiment [8], 0.48 µg/mL (≈ 0.699 µM); in experiment [9], 0.48 µg/mL (≈ 0.699 µM); in [10] it was 15.6 µg/mL (≈ 22.7 µM); in experiment [11] it was 15.6 µg/mL (≈ 22.7 µM); in experiment [12], 3.9 µg/mL (≈ 5.68 µM). For the same compound, the minimal inhibitory concentration (MIC) in experiment [13] is 0.975 µg/mL (≈ 1.42 µM); in [14], 3.9 µg/mL (≈ 5.68 µM); in experiment [15] (setting [17]), 1.95 to 3.9 µg/mL (≈ 2.84 to 5.68 µM); in experiment [15], 1.95 µg/mL (≈ 2.84 µM); in experiment [16] it was 3.9 to 15.6 µg/mL (≈ 5.68 to 22.7 µM). In addition, the half-maximal inhibitory concentration (IC50) with BEAS-2B cell line is over 62.5 µg/mL.
With `CCCCCCCCCCCC(=O)NC[C@H]1O[C@H](O[C@@H]2[C@@H](O)[C@H](O[C@H]3O[C@H](CN)[C@@H](O)C[C@H]3N)[C@@H](N)C[C@H]2N)[C@H](O)[C@@H](N)[C@@H]1O` [Compound 9, O-3-Amino-3,6-dideoxy-6-[(1-oxododecyl)amino]-α-D-glucopyranosyl-(1→6)-O-[2,6-diamino-2,3,6-trideoxy-α-D-ribo-hexopyranosyl-(1→4)]-2-deoxy-D-streptamine], the MIC is over 62.5 µg/mL in experiment [1]; 15.6 µg/mL (≈ 24 µM) in experiment [2]; 15.6 µg/mL (≈ 24 µM) in [3]; 7.8 to 31.3 µg/mL (≈ 12 to 48.2 µM) in experiment [4]; 15.6 µg/mL (≈ 24 µM) in [5]; 7.8 µg/mL (≈ 12 µM) in experiment [6]. Further, the MIC was 15.6 µg/mL (≈ 24 µM) in experiment [7]; 0.975 µg/mL (≈ 1.5 µM) in experiment [8]; 0.975 µg/mL (≈ 1.5 µM) in experiment [9]; 31.3 µg/mL (≈ 48.2 µM) in experiment [10]; 62.5 µg/mL (≈ 96.3 µM) in [11]; 15.6 µg/mL (≈ 24 µM) in [12]. In addition, the minimum inhibitory concentration (MIC) in [13] is 0.975 µg/mL (≈ 1.5 µM); in experiment [14], 15.6 µg/mL (≈ 24 µM); in [15] (setting [17]) it was 1.95 to 3.9 µg/mL (≈ 3.01 to 6.01 µM); in experiment [15], 3.9 µg/mL (≈ 6.01 µM); in experiment [16], 15.6 to 62.5 µg/mL (≈ 24 to 96.3 µM). For the same compound, the concentration for half-maximal inhibition (IC50) in the experiment on BEAS-2B cell line is over 62.5 µg/mL.
